We go through 13 compounds from ChEMBL document CHEMBL1201862, “PubChem BioAssay data set” (2004).

What all share (experiment): NCI anticancer screen, dose series, 48 h
Assay [1] concerns K562.
The subject of assay [2] is M14.
Assay [3] relates to U-251.
In assay [4] the test system is HCT-15.
Assay [5] concerns SR.
Assay [6] has as its system OVCAR-5.
Assay [7] relates to ACHN.
Assay [8] concerns NCI-H23.
Assay [9] relates to CCRF-CEM.
Assay [10] has as its system NCI-H522.
The test system of assay [11] is SN12C.
The test system of assay [12] is SK-OV-3.
In assay [13] the test system is 786-0.
Assay [14] deals with KM-20L2.
The test system of assay [15] is OVCAR-3.
Assay [16] concerns LOX IMVI.
For assay [17], the system named is CAKI-1.

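Tested at 5 concentrations; 48 h exposure; 96-well plates; endpoints linearly interpolated, else capped at highest concentration. Abbreviation: GI50, concentration required for 50% inhibition of growth.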 Activity calls are given as the source filed them. No stated cut-off is given here; in the data, active = GI50 up to about 1.1 µM and inactive = higher. Where only a bound is given, the exact number is not on record here.

Regarding `CCNC(=O)C(O)C1(O)CCC2[C@@H]3CCC4=CC(=O)C=C[C@]4(C)C3[C@@H](O)C[C@@]21C` (stereo partly specified), the GI50 in assay [1] was > 91 µM (inactive); in assay [2] it was > 100 µM (inactive); in assay [3], > 100 µM (inactive); in assay [4], over 100 µM; in assay [5] it was 63 µM (inactive); in assay [6] it was > 100 µM (inactive). Also, the GI50 was > 100 µM (inactive) in assay [7]; > 100 µM (inactive) in assay [8]; 32.8 µM (inactive) in assay [9]; > 100 µM (inactive) in assay [10]; 53.2 µM (inactive) in assay [11]; > 100 µM (inactive) in [12]. Further, the GI50 in [13] was > 100 µM (inactive); in [14], > 100 µM (inactive); in assay [15], > 100 µM (inactive); in assay [16] it was > 95.1 µM (inactive); in assay [17] it was > 100 µM (inactive).
With `CC(=O)N1[C@H](C(=O)O)CS[C@H]1c1ccncc1`, the GI50 in assay [1] was > 100 µM (inactive); in assay [2], > 100 µM (inactive); in assay [4], over 100 µM; in assay [5], > 100 µM (inactive); in assay [6], > 100 µM (inactive); in [7], > 100 µM (inactive). The GI50 in [8], in assay [9], in assay [11], in [13], in [14] and in assay [15] was > 100 µM (inactive) throughout. Moreover, the GI50 in assay [16] and in assay [17] was > 100 µM (inactive) throughout.
For the compound `CCOC(=O)Cc1ccc2c(c1O)C(=O)c1c(ccc(CC(=O)OCC)c1O)C2=O`, the GI50 in [1] was > 100 µM (inactive); in assay [2], > 100 µM (inactive); in assay [3], 83.8 µM (inactive); in assay [5], > 100 µM (inactive); in assay [6], > 100 µM (inactive); in assay [7] it was > 100 µM (inactive). For the same compound, the GI50 in assay [8] was > 100 µM (inactive); in [9] it was 59 µM (inactive); in assay [10] it was > 100 µM (inactive); in [11], > 100 µM (inactive); in assay [12] it was > 100 µM (inactive); in [13], > 100 µM (inactive). Besides, the GI50 in [14] is > 100 µM (inactive); in assay [15], 47.8 µM (inactive); in assay [16], 27.9 µM (inactive).
With `CN(C)C=[N+]=[N-]`, the GI50 in assay [1] was > 100 µM (inactive); in assay [2], > 100 µM (inactive); in [3] it was > 100 µM (inactive); in [4], over 100 µM; in assay [5], > 100 µM (inactive); in assay [6] it was > 100 µM (inactive). Moreover, the GI50 was > 100 µM (inactive) in [7]; > 100 µM (inactive) in assay [8]; 0.17 µM (active) in assay [10]; > 100 µM (inactive) in assay [11]; > 100 µM (inactive) in assay [12]; > 100 µM (inactive) in assay [13]. The GI50 is > 100 µM (inactive) in [14], > 100 µM (inactive) in assay [15] and 43 µM (inactive) in assay [17].
With `Cc1nc([N+](=O)[O-])cn1CC(=N)N`, the GI50 in [1] is > 100 µM (inactive); in assay [2] it was > 100 µM (inactive); in assay [3] it was > 100 µM (inactive); in assay [4], over 100 µM; in [5], > 100 µM (inactive); in [7], > 100 µM (inactive). Further, the GI50 in assay [8], in assay [9], in [11], in assay [13], in assay [14] and in assay [15] was > 100 µM (inactive) in each case. Moreover, the GI50 in [16] is > 100 µM (inactive).
Consider `CN(C)CCSc1cccc(-c2cc(-c3cccc(SCCN(C)C)c3)nc(SCCN(C)C)n2)c1`, for which the GI50 in [1] was 1.49 µM (inactive); in assay [2], 1.62 µM (inactive); in assay [3] it was 1.91 µM (inactive); in assay [4], 2.18 µM; in assay [5], 1.82 µM (inactive); in assay [6], 6.79 µM (inactive). Also, the GI50 in [7] was 5.77 µM (inactive); in assay [8] it was 4.49 µM (inactive); in assay [9], 1.69 µM (inactive); in assay [10], 1.61 µM (inactive); in assay [11], 12.1 µM (inactive); in assay [12] it was 30.1 µM (inactive). The GI50 in [13] is 7.85 µM (inactive); in [14] it was 1.71 µM (inactive); in assay [15] it was 10.2 µM (inactive); in assay [16] it was 1.64 µM (inactive).
As to `Cc1ccc(S(=O)(=O)OCOS(=O)(=O)c2ccc(C)cc2)cc1`, the GI50 in [1] was > 100 µM (inactive); in assay [2] it was > 100 µM (inactive); in assay [3] it was > 100 µM (inactive); in [4] it was over 100 µM; in assay [5], > 100 µM (inactive); in assay [6], > 100 µM (inactive). Also, the GI50 in assay [7], in assay [8], in assay [9], in [10], in assay [11] and in assay [12] was > 100 µM (inactive) in each case. For the same compound, the GI50 in [13], in assay [14], in [15] and in assay [16] was > 100 µM (inactive) each time.
Take `O=C(c1ccccc1)[C@H]1Nc2ccc(Cl)cc2[C@H]2CCC[C@@H]12`: the GI50 in assay [1] was 15.4 µM (inactive); in [2], 11.7 µM (inactive); in [3] it was 35.6 µM (inactive); in assay [4], 25.1 µM; in [5], 7.21 µM (inactive); in assay [6], 23.7 µM (inactive). Also, the GI50 was 13.3 µM (inactive) in assay [7]; 23.9 µM (inactive) in [8]; 23.3 µM (inactive) in assay [10]; 14.6 µM (inactive) in assay [11]; 44.9 µM (inactive) in assay [13]; 26.9 µM (inactive) in assay [14]. Moreover, the GI50 was 27.2 µM (inactive) in assay [15], 6.85 µM (inactive) in assay [16] and 59.8 µM (inactive) in assay [17].
As to `COc1cccc(NC(=O)CC(=O)N2N=C(N3c4ccccc4Sc4ccccc43)CC2c2ccccc2)c1` (stereo unspecified), the GI50 in assay [2] is > 100 µM (inactive); in assay [3], > 100 µM (inactive); in assay [4] it was over 100 µM; in assay [5] it was > 100 µM (inactive); in assay [6], > 100 µM (inactive); in assay [7], > 100 µM (inactive). Moreover, the GI50 in assay [8], in assay [11], in [12], in assay [13], in [14] and in assay [15] was > 100 µM (inactive) each time. Moreover, the GI50 in [16] and in assay [17] was > 100 µM (inactive) in each case.
Consider `CCOC(=O)C(C)c1c(C(=O)c2ccc(C)nc2)c2ccccc2n1C` (stereo unspecified), for which the GI50 in assay [1] was > 100 µM (inactive); in [2], > 100 µM (inactive); in assay [4], over 100 µM; in assay [6], > 100 µM (inactive); in assay [7], > 100 µM (inactive); in assay [8], > 100 µM (inactive). Besides, the GI50 in assay [9] was > 100 µM (inactive); in assay [10], 79.6 µM (inactive); in assay [11], > 100 µM (inactive); in assay [12], > 100 µM (inactive); in assay [13] it was > 100 µM (inactive); in [14] it was > 100 µM (inactive). The GI50 in assay [15], in [16] and in assay [17] was > 100 µM (inactive) each time.
For the compound `COc1ccc(OC(=O)CC2Cc3cc(OC)c(OC)c(OC)c3-c3ccc(SC)c(=O)cc32)cc1` (stereo unspecified), the GI50 is 0.0805 µM (active) in [1]; 0.34 µM (active) in [2]; 0.224 µM (active) in assay [3]; 0.467 µM in assay [4]; 0.463 µM (active) in [5]; 0.792 µM (active) in assay [7]. Further, the GI50 in assay [8] was 0.421 µM (active); in assay [9], 0.184 µM (active); in [10] it was 0.2 µM (active); in [11], 0.3 µM (active); in assay [12], 0.0277 µM (active); in assay [13], 0.0551 µM (active). For the same compound, the GI50 in assay [14] was 0.169 µM (active); in [15], 0.185 µM (active); in [16] it was 0.172 µM (active).
With `CCOC(=O)N1CCc2cc(OC)c(OC)cc2/C1=C/c1ccc(OC)c(OC)c1`, the GI50 in assay [1] is 35.5 µM (inactive); in assay [2] it was 82.8 µM (inactive); in [3], 44.5 µM (inactive); in assay [4] it was 36.1 µM; in [5] it was 34.1 µM (inactive); in assay [6] it was 94 µM (inactive). Moreover, the GI50 is 52.2 µM (inactive) in assay [7]; 36.1 µM (inactive) in assay [8]; 29 µM (inactive) in assay [9]; 40.1 µM (inactive) in [10]; 35.6 µM (inactive) in assay [11]; > 100 µM (inactive) in assay [12]. In addition, the GI50 in assay [13] was 42.8 µM (inactive); in assay [14], 38.3 µM (inactive); in assay [15], 61.4 µM (inactive); in assay [16] it was 52.2 µM (inactive).
As to `COc1ccccc1NC(=O)CC(=O)N1N=C(C)C(/N=N/c2ccc(S(N)(=O)=O)cc2)C1=O` (stereo unspecified), the GI50 in [2] was > 100 µM (inactive); in assay [3] it was > 100 µM (inactive); in [4] it was over 100 µM; in assay [5], > 100 µM (inactive); in [6], > 100 µM (inactive); in assay [7] it was > 100 µM (inactive). Further, the GI50 in assay [8], in assay [10], in [11], in [12], in assay [13] and in [14] was > 100 µM (inactive) in each case. The GI50 in assay [15], in assay [16] and in [17] was > 100 µM (inactive) throughout.
